Data on 14 compounds can be found in ChEMBL document CHEMBL2163341, “Discovery of MK-7725, A Potent, Selective Bombesin Receptor Subtype-3 Agonist for the Treatment of Obesity” (ACS Med Chem Lett, 2012).

The target in data set [1] is T1, Nuclear receptor subfamily 1 group I member 2 (Homo sapiens, UniProt O75469).
T1 sequence (O75469 whole entry): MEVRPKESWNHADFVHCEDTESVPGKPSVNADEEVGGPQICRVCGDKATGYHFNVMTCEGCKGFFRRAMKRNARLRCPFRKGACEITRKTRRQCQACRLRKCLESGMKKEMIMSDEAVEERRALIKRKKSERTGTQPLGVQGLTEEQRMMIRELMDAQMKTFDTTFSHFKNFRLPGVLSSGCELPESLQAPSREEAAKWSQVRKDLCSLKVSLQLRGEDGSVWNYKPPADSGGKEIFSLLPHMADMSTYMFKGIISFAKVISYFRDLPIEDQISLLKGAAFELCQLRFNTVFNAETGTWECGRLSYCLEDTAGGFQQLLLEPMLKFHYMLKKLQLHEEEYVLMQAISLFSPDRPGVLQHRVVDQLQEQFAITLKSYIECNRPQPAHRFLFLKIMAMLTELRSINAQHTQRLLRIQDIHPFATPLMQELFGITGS
Kind of data set: Activation of PXR at 10 uM.

The nature of data set [2]: Oral bioavailability in Sprague-Dawley rat at 1 mg/kg. It counts as ADME, organism-based. As to conditions: in vivo.
Data set [3] addresses T2, Bombesin receptor subtype-3 (Homo sapiens, UniProt P32247).
T2 sequence (P32247 whole entry): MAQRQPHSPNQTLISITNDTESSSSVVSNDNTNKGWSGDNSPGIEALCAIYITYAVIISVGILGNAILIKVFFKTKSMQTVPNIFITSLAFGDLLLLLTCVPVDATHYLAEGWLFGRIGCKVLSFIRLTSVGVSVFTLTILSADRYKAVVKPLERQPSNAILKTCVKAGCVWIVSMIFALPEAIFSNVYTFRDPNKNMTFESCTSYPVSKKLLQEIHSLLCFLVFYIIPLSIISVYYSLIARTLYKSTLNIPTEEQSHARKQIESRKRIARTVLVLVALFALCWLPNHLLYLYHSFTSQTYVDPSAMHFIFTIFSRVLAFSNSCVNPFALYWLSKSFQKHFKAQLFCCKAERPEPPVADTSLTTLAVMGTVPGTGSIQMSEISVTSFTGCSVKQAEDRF
Kind of data set: Displacement of [125I]-dY-peptide from human BRS-3 expressed in NFAT-CHO cells after 2 hrs by liquid scintillation counting. It counts as cell-based. Background: In a radioligand displacement assay an active substance lowers the binding of a labelled ligand.

Data set [4] concerns the target T3, Bombesin receptor subtype-3 (Mus musculus) (UniProt O54798).
T3 sequence (whole entry): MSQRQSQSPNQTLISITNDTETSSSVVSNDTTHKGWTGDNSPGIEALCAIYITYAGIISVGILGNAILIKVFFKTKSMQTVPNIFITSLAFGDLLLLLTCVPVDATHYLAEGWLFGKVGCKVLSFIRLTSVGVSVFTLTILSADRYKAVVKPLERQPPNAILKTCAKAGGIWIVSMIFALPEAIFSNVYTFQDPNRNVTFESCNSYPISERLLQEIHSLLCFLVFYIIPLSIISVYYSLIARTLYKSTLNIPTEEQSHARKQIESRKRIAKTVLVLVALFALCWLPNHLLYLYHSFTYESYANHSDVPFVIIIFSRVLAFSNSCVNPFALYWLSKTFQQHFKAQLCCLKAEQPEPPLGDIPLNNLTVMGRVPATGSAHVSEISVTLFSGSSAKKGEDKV
Description: Agonist activity at mouse BRS-3 expressed in HEK293AEQ cells assessed as bioluminescence for 10 mins by aequorin bioluminescence assay relative to dY-peptide. The class given is functional, cell-based.

The next data set concerns Mus musculus. Description: Increase of core body temperature in DIO mouse assessed as AUC (1 to 6 hrs) of body temperature changes at 3 mg/kg by fasted temperature PD assay. It counts as functional.
The nature of data set [5]: Half life in Sprague-Dawley rat at 0.5 mg/kg, iv. More on the design: dose 0.5 mg/kg, route intravenous. It counts as ADME, organism-based. As to conditions: in vivo.
Data set [6] concerns the target T1, Nuclear receptor subfamily 1 group I member 2. Kind of data set: Activation of PXR.
The target of data set [7] is T4, Bombesin receptor subtype-3 (Mus musculus, UniProt O54798).
T4 sequence (O54798 whole entry): T3 sequence (whole entry)
Description: Agonist activity at mouse BRS-3 expressed in HEK293AEQ cells assessed as bioluminescence for 10 mins by aequorin bioluminescence assay. The class given is functional, cell-based.

The nature of data set [8]: Plasma clearance in Sprague-Dawley rat at 0.5 mg/kg, iv. The class given is ADME, organism-based. Details: dose 0.5 mg/kg, route intravenous.
The target of data set [9] is T2, Bombesin receptor subtype-3. Description: Agonist activity at human BRS-3 expressed in HEK293AEQ cells assessed as bioluminescence for 10 mins by aequorin bioluminescence assay. The class given is functional, cell-based.
The target in data set [10] is T5, Bombesin receptor subtype-3 (Homo sapiens) (UniProt P32247).
T5 sequence (whole entry): T2 sequence (P32247 whole entry)
Kind of data set: Agonist activity at human BRS-3 expressed in HEK293AEQ cells assessed as bioluminescence for 10 mins by aequorin bioluminescence assay relative to dY-peptide. The class given is functional, cell-based.

Data set [11] relates to Rattus norvegicus. Kind of data set: Dose normalized AUC in Sprague-Dawley rat at 1 mg/kg, po. It counts as ADME, organism-based. More on the design: dose 1 mg/kg, route oral. To be noted: in vivo.
The test system of data set [12] is Rattus norvegicus. Description: Antiobesity activity in DIO Sprague-Dawley rat assessed as reduction of body weight at 3 mg/kg, po administered bid for 12 days. The class given is functional. More on the design: scale not given: the % may be the effect or the level left.

pEC50, pIC50: −log10 of the molar value.

For `Cc1ccc2c(c1C)N(S(=O)(=O)c1ccc(C(C)(C)C)cc1)Cc1ccc(C(F)(F)F)nc1N2`, the Activity in data set [1] was 42%.
A word on the bioavailability: it is dose-corrected exposure relative to a reference, in per cent. Usually pIC50 stands for the negative decadic logarithm of the IC50, by convention in mol/L. The half-life is the time needed for the level to fall by half in the phase considered. Usually pEC50 stands for the EC50 on a negative log10 scale, so that one unit is a factor of ten. A word on the clearance: it is a measure of how efficiently the substance is removed, as volume per time. Consider `CC(C)c1ccc(S(=O)(=O)N2Cc3ccc(C(F)(F)F)nc3Nc3cccc(-c4noc(C(C)(C)O)n4)c32)cc1`, for which, in [2], the bioavailability was 8%. The compound also gave a pIC50 in data set [3] of 8.77. The Activity in data set [4] was found to be 114%; with Mus musculus, 4.93 degreeC.hr; in data set [1], 80%. This compound also gave a half-life in [5] of 1.6 h. Besides, the pEC50 is 5.62 in data set [6] and 6.83 in [7]. The compound further returned a clearance in data set [8] of 2.94 L/h/kg.
As to `CC(C)(C)c1ccc(S(=O)(=O)N2Cc3ccc(C(F)(F)F)nc3Nc3cccc(-c4noc(=O)[nH]4)c32)cc1`, the negative-log EC50 (pEC50) was 7.11 in [9], 5.72 in data set [6] and 7.12 in [7]. For the same compound, the pIC50 in data set [3] was 7.54. The Activity is 105% in [4], -0.52 degreeC.hr with Mus musculus, 104% in data set [10] and 42% in data set [1].
On to `CC(C)(C)c1ccc(S(=O)(=O)N2Cc3ccc(C(F)(F)F)nc3Nc3cccc(-c4noc(C(C)(C)O)n4)c32)cc1`, for which the negative logarithm of the EC50 (pEC50) in data set [9] is 7.28; in data set [6], under 5.00; in [7], 7.08. Moreover, the bioavailability in data set [2] turned out to be 14%. For the same compound, the negative logarithm of the IC50 (pIC50) in data set [3] is 9.05. Moreover, the Activity was 117% in data set [4], 2.6 degreeC.hr in the data set with Mus musculus, 106% in data set [10] and 13% in [1]. Further, the half-life in data set [5] was 1.9 h. In the data set on Rattus norvegicus [11], this compound registered an AUC/dose of 0.65 µM·kg·h/mg. This compound also registered a clearance in data set [8] of 2.64 L/h/kg.
In the case of `CC(C)(O)c1nc(-c2cccc3c2N(S(=O)(=O)c2ccc(C(F)(F)F)cc2)Cc2ccc(C(F)(F)F)nc2N3)no1`, the bioavailability in [2] came to 100%. The compound further showed a pIC50 in [3] of 8.08. In addition, the Activity in [4] is 97%; in the data set with Mus musculus, 5.22 degreeC.hr; in [1], 6%. The compound further gave a half-life in [5] of 2.5 h. The compound further showed an AUC/dose in the data set with Rattus norvegicus [11] of 1.05 µM·kg·h/mg. Besides, the pEC50 in [6] is under 4.52; in data set [7], 7.02. For the same compound, in data set [8], the clearance worked out at 1.98 L/h/kg.
For `CC(C)(C)c1ccc(S(=O)(=O)N2Cc3ccc(C(F)(F)F)nc3Nc3cccc(-c4ncon4)c32)cc1`, the pEC50 in [9] is 7.40; in [6], 4.93; in [7], 7.24. Also, the negative-log IC50 (pIC50) in data set [3] is 8.96. Moreover, the Activity in data set [4] was 116%; with Mus musculus, 2.1 degreeC.hr; in data set [10], 102%; in [1], 53%.
`CC(C)(O)c1nc(-c2cccc3c2N(S(=O)(=O)c2ccc(OC(F)F)cc2)Cc2ccc(C(F)(F)F)nc2N3)no1`: the negative-log IC50 (pIC50) in data set [3] is 7.74. The Activity came to 94% in [4], 3.31 degreeC.hr in the data set with Mus musculus and 22% in data set [1]. The results for the negative logarithm of the EC50 (pEC50) in data set [6] and in data set [7] were 5.00 and 7.00, respectively.
Consider `CC(C)(C)c1ccc(S(=O)(=O)N2Cc3ccc(C(F)(F)F)nc3Nc3cccc(-c4noc(CO)n4)c32)cc1`, for which the pEC50 was 7.25 in data set [9], 5.46 in data set [6] and 7.03 in data set [7]. Further, the bioavailability in data set [2] worked out at 29%. The compound also had a negative logarithm of the IC50 (pIC50) in [3] of 9.15. Besides, the Activity in data set [4] is 114%; with Mus musculus it was 2.6 degreeC.hr; in data set [10], 102%; in data set [1], 78%. This compound showed a half-life in [5] of 1.7 h. In the data set on Rattus norvegicus [11], this compound registered an AUC/dose of 0.39 µM·kg·h/mg. Further, in [8], the clearance was determined as 1.32 L/h/kg.
As for `CC(C)(C)c1ccc(S(=O)(=O)N2Cc3ccc(C(F)(F)F)nc3Nc3cccc(-c4cccnc4)c32)cc1`, the pEC50 is 7.38 in [9], 5.74 in data set [6] and 7.24 in data set [7]. Further, the pIC50 in [3] is 8.76. Besides, the Activity in [4] was 105%; in the data set on Mus musculus, -0.99 degreeC.hr; in [10] it was 99%; in data set [1], 77%.
With `CC(C)(C)c1ccc(S(=O)(=O)N2Cc3ccc(C(F)(F)F)nc3Nc3cccc(C4CCNCC4)c32)cc1`, the pEC50 is 6.94 in data set [9], 5.18 in [6] and 6.94 in data set [7]. Further, in [3], the pIC50 was 8.85. The Activity was 129% in [4], -0.74 degreeC.hr with Mus musculus, 101% in data set [10] and 37% in data set [1].
For the compound `CCNC(C)Cc1cccc(C(F)(F)F)c1` (stereo not given) [FENFLURAMINE], the Activity in the data set on Rattus norvegicus [12] was found to be 6.2%.
In the case of `C[C@H](O)c1nc(-c2cccc3c2N(S(=O)(=O)c2ccc(C(C)(C)C)cc2)Cc2ccc(C(F)(F)F)nc2N3)no1`, the values for the pEC50 in data set [9], in data set [6] and in data set [7] were 7.28, under 5.00 and 7.05, respectively. For the same compound, in data set [2], the bioavailability stood at 14%. In addition, the negative logarithm of the IC50 (pIC50) in data set [3] was 8.92. For the same compound, the Activity in data set [4] stood at 109%; in the data set with Mus musculus, 3.7 degreeC.hr; in data set [10], 102%; in [1] it was 9%. This compound also gave a half-life in data set [5] of 2.1 h. Besides, the AUC/dose in the data set on Rattus norvegicus [11] came out at 0.34 µM·kg·h/mg. The compound further had a clearance in data set [8] of 5.16 L/h/kg.
With `C[C@@H](O)c1nc(-c2cccc3c2N(S(=O)(=O)c2ccc(C(C)(C)C)cc2)Cc2ccc(C(F)(F)F)nc2N3)no1`, the figures for the pEC50 in data set [9], in data set [6] and in data set [7] were 7.16, under 4.60 and 6.87, respectively. Besides, the bioavailability in data set [2] amounted to 11%. Besides, in [3], the negative-log IC50 (pIC50) is 8.72. Further, the Activity in data set [4] amounted to 112%; in the data set with Mus musculus, 0.4 degreeC.hr; in [10] it was 107%; in [1] it was 18%. The compound further gave a half-life in data set [5] of 1.8 h. Besides, in the data set with Rattus norvegicus [11], the AUC/dose came to 0.9 µM·kg·h/mg. Besides, in [8], the clearance was determined as 1.98 L/h/kg.
For `Cn1cc(-c2cccc3c2N(S(=O)(=O)c2ccc(C(C)(C)C)cc2)Cc2ccc(C(F)(F)F)nc2N3)cn1`, the pEC50 is 7.20 in data set [9], 5.96 in data set [6] and 6.99 in data set [7]. This compound had a negative logarithm of the IC50 (pIC50) in data set [3] of 9.12. The Activity was 110% in data set [4], 0.2 degreeC.hr in the data set on Mus musculus, 95% in [10] and 50% in [1].
